Numbered stars: 1 amine (or outer) side, 2 acyl side, 3 side chain; on linkers, the order of the positions; unused ones are H or OH. * marks the point of attachment. Suc = O=C(CCC(=O)[*:2])[*:1]; Propionyl = CCC(=O)*
Legend:
Format in all cases: in vivo, rat
[1] = Example 3: short-term oral treatment, body weight and food intake in DIO rats; details: for reduction in body weight vs oral sCT at same dose: DIO rats; for energy balance vs equivalent doses of oral sCT: 0.5, 1 and 2 mg/kg doses p.o., male DIO rats
Description: The study was performed in male Levin-DIO rats (diet-sensitive) and Levin-DR (diet-resistant) (TacLevin: CD (SD) DIO) (Taconic, Hudson, N.Y., U.S.A.) obtained at age 6-7 weeks. On arrival, DIO rats were given high fat diet (60 kcal %) (#D12495, Research Diets Inc., New Brunswick, N.J., USA) and kept on the same diet for 12 weeks prior to and during the experiment. DR rats were given low-fat diet and served as control group. Animals were pair-wise housed throughout the study. Rats were handled and pre-dosed once daily with MilliQ H2O for 2-3 weeks prior to experimental start to reduce stress-induced hyperglycemia. On the day prior to study start animals were given a single dose of vehicle. Baseline parameters were recorded in an overnight fasting (16 h) condition. Rats were randomized into treatment groups based on fasting body weight (BW) and fasting plasma glucose (FPG). Body weight, food and water intake were recorded prior to and at study end.
Animals treated with oral sCT or oral UGP284/UGP298/UGP302 received doses of 0.5 mg/kg, 1.0 mg/kg or 2.0 mg/kg combined with 150 mg/kg 5-CNAC—all dissolved in milliQ H2O.
(§1) Drug administration were given by per oral (p.o.) gavage b.i.d. during the study period and as single dose in the morning prior to start of OGTT.
(§2) Following the initial (1st) OGTT, animals were randomized into treatment groups based on FBG and BW. Animals were pre-treated 3 days (b.i.d.) prior to 2nd OGTT. The study was performed in an x-over design with each animal being its own control.
(§3) Statistical analysis was performed by one-way ANOVA followed by the Dunnett's post hoc test for multiple comparison. Student's t-test was performed to compare two paired group. All analysis was performed using GRAPHPAD PRISM software (GraphPad Prism, San Diego, Calif. U.S.A). Incremental area under curve (iAUC) during OGTT was calculated by the trapezoidal method. A value of P<0.05 was considered to be significant. All data are presented as mean±standard error of the mean (SEM).
FIG. 9A, FIG. 9B, FIG. 9C, FIG. 9D, FIG. 9E, and FIG. 9F show the effect of three different doses of oral sCT/UGP284/UGP298/UGP302 containing 0.5, 1 and 2 mg/kg compound were applied by gavage twice daily to 4 groups of rats for 3 days. * P<0.05, ** P<0.01 vs oral sCT. Results are presented as means±SEM.

[2] = Example 3: OGTT after 3 days of oral treatment in DIO rats; details: doses of 0.5, 1 and 2 mg/kg p.o.
Description: as §1
Animals were given 2 g/kg single dose dissolved in milliQ H20.
as §2
OGTT Following Overnight Fasting (16 h):
Blood sampling and glycemia were measured by heated tail venous puncture. Whole blood glucose levels were determined with an ACCU-CHEK® Avia blood glucose meter (Roche Diagnostics, Rotkreuz, Switzerland). Blood (approx 300 μl) is collected in 1 ml MiniCollect K3EDTA plasma-tube (Greiner-Bio-One GmbH, Frickenhausen, Germany), inverted, and stored on ice. Tubes are centrifuged 3000×g (5000 rpm in table centrifuge) for 10 min at 4° C. and plasma obtained. Plasma samples are stored at −20° C. until analysis. A total of ˜2.5 ml blood is obtained during OGTT (˜0.3% of body weight).
as §3
FIG. 10A, FIG. 10B, FIG. 10C, FIG. 10D, FIG. 10E, and FIG. 10F show the effect of oral sCT versus oral UGPs on glucose tolerance during OGTT in DIO rats. Three different doses of oral sCT/UGP284/UGP298/UGP302 containing 0.5, 1 and 2 mg/kg compound were applied by gavage twice daily to 4 groups of rats for 3 days prior to OGTT. The experimental set-up was a cross-over design. * P<0.05, ** P<0.01, *** P<0.001 vs oral vehicle. Results are presented as means±SEM.

[3] = Example 7: combination with metformin in Zucker Diabetic Fatty rats, FPG, PPG, HbA1c; details: ZDF rats; 8 weeks once daily; metformin 400 mg/kg/day oral, UGP302 5 μg/kg/day s.c.
Description: (§4) To assess the potential of UGP302 (SEQ ID NO: 15) in combination with metformin, Zucker Diabetic Fatty rats were used. At the age of 6 weeks 40 rats were randomized into four groups according to HbA1c, FPG and BW. The groups were: Control (Vehicle), Metformin 400 mg/kg/day, UGP302 5 μg/kg/day and the combination of the two molecules in the stated respective amounts. The treatments were given once daily, and metformin was dosed orally, while UGP302 was given subcutaneously, and the animals were treated for 8 weeks. Fasting blood glucose (FPG) and non-fasted blood glucose (PPG) were monitored biweekly, while HbA1c was measured at termination.

[4] = Example 7: oral glucose tolerance test in Zucker Diabetic Fatty rats; details: ZDF rats; metformin 400 mg/kg/day oral, UGP302 5 μg/kg/day s.c.
Description: as §4
(§5) To further assess the effect of both single doses of each molecule and the combination of these at those same doses, the rats underwent an oral glucose tolerance test (OGTT, FIGS. 23A-23B) and an insulin tolerance test (ITT, FIGS. 24A-24B).

[5] = Example 7: insulin tolerance test in Zucker Diabetic Fatty rats; details: ZDF rats; metformin 400 mg/kg/day oral, UGP302 5 μg/kg/day s.c.
Description: as §4, §5

Row | Compound | reduction in body weight vs oral sCT at same dose ([1]; 2 mg/kg p.o. b.i.d. for 3 days) | energy balance vs equivalent doses of oral sCT [1] | glucose tolerance during OGTT [2] | reduction in body weight vs oral sCT at same dose ([1]; 1 mg/kg p.o. b.i.d. for 3 days) | fasting blood glucose (FPG) [3] | non-fasted blood glucose (PPG) [3] | glucose tolerance (OGTT) [4] | insulin tolerance (ITT) [5]
1 | PrCSNLSTCVLGKLSQELHKLQTYPRTNTGSGTP-NH2 (Propionyl-CSNLSTCVLGKLSQELHKLQTYPRTNTGSGTP-NH2; ends and bridges not checked) [UGP284, calcitonin mimetic] | significantly difference at 2 mg/kg dose | superiority to equivalent doses of oral sCT | improvement in glucose tolerance |  |  |  |  | 
2 | SuccCSNLSTCVLGKLSQELHKLQTYPRTNTGSGTP-NH2 (Suc-CSNLSTCVLGKLSQELHKLQTYPRTNTGSGTP-NH2; ends and bridges not checked) [UGP298, calcitonin mimetic] | significantly different when compared with oral sCT | superiority to equivalent doses of oral sCT | improvement in glucose tolerance | significantly different when compared with oral sCT |  |  |  | 
3 | CN(C)C(=N)N=C(N)N [metformin, reference compound] |  |  |  |  | reduced | reduced | individually improve | individually improve

Source: patent US9862754B2, “Peptide analogs for treating diseases and disorders” (KeyBioscience AG, priority 2011, dated 2018)
